Read-outs that look alike come from different tables or passages of the source.

Series [1] in a line: Thermal cis-to-trans isomerization (thermal half-life of the metastable cis isomer). Format: physicochemical. Particulars: for thermal lifetime t1/2: at 25 and 37 °C; for t1/2 DMSO (25 °C): thermal cis-to-trans isomerization, 20 µM. Here is the method: (§1) UV–vis absorption spectra were recorded on an Agilent 8453 UV–vis Spectrophotometer. Photochemical isomerization (photoswitching) was achieved by irradiation from the side in a fluorescence quartz cuvette (width = 1.0 cm) using a custom-built (Prizmatix/Mountain Photonics) multiwavelength fiber coupled LED system (FC6-LED-WL) including the following LEDs: 365A, 390B, 420Z, 445B, 535R, 630CA. A detailed description of the setup was published by us recently.[84] Alternatively, the samples were irradiated at 340 nm using the LOT Quantum design setup with 300 W Xe-Arc lamp, using the Thorlabs FB340-10 Bandpass filter. A Quantum Northwest TC1 temperature controller was used to maintain the temperature at 25 °C during photochemical studies. To analyze the fatigue resistance of the compounds, repeated irradiation cycles were performed using alternating wavelengths. The decrease and increase of the π–π* transition band was followed by UV–vis spectroscopy (Agilent 8453) at 25 °C while stirring. To determine the thermal lifetime for the metastable cis isomer, samples were irradiated with the custom-built setup until photostationary state (PSS) was reached. Then, the cuvettes were placed in a JASCO V750 spectrophotometer with a PTC 424S/15 temperature controller, and the recovery of the π–π* transition was followed while stirring at 25 °C (for solutions in DMSO and eDHFR assay buffer) or 37 °C (for solutions in 10 mM Tris-HCl buffer pH 7.0). The data were fitted using a first-order exponential function in OriginPro 2018. For the PSD determination by ^1H NMR spectroscopy, 0.5 mL of a 2 mM solution of the respective compound in DMSO-d6 was thermally equilibrated by briefly (∼10 s) heating the sample with a heat gun. Subsequently, the sample was irradiated in a glass NMR tube with a 365 nm hand-held lamp (Spectroline ENB-280C) or the LEDs of the custom-built setup. Detailed data are reported in the SI.

The subject of another series is E. coli CS1562. Kind of series: Antibacterial activity assay (MIC, bacterial growth curves). Format: cell-based, Escherichia coli. Particulars: for MIC: Escherichia coli, E. coli CS1562, 24 h. The method, then:
A culture of E. coli CS1562 was grown overnight in LB medium (10 g/L tryptone, 5 g/L yeast extract, 5 g/L NaCl) containing tetracycline (10 μg/mL) at 37 °C. The OD600 was measured, and the culture was diluted to 0.002 OD600 in LB medium. Series dilutions of the compounds were prepared in DMSO and diluted 25 times in sterile LB medium in a black sterile Eppendorf tube. […] Subsequently, the dark samples were added to the 96-well plate (100 μL, triplicates). Lastly, the LB medium containing E. coli CS1562 at 0.002 OD was added to every well (100 μL). The cells were grown overnight at 37 °C in a plate reader (Synergy H1, Biotek), and the OD600 was measured every 10 min with a 10 s shaking step before each measurement. The OD600 curves were background-corrected by subtracting the value at t = 0. […] Detailed data are reported in the SI.

Series [2] can be described thus: Fatigue studies: repeated photoisomerization in the presence of GSH. Format: physicochemical. To be noted: eDHFR assay buffer, 10 mM GSH. The method, then: as §1
In another series the target is T1, eDHFR (Escherichia coli, UniProt P0ABQ4).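 Also: purified E. coli DHFR colorimetric assay, enzyme with NADPH 3 min then inhibitor (10^-12 to 10^-5 M) 7 min, rate ΔAbs/s relative to DMSO control (1% v/v), triplicates.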
T1 construct: made in house; host or cells: E. cloni EXPRESS BL21 (DE3) cells (Lucigen), pT7-SC1 plasmid
T1 sequence (P0ABQ4 whole entry): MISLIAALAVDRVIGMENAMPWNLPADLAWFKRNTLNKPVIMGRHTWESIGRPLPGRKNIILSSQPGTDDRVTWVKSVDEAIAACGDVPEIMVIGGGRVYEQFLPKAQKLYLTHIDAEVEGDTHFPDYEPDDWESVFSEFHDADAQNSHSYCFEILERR
Kind of series: biochemical. Particulars: for light-induced change in eDHFR inhibition (dark IC50 vs irradiated IC50): irradiation with λ1 = 365 nm.

The nature of series [3]: Solubility in eDHFR assay buffer. The format is physicochemical. Particulars: aqueous with cosolvent or surfactant or cyclodextrin, with 20% DMSO as an additive.
Where [4] appears, read: light or radiation study, after irradiation with λ1 = 365 nm, read-out: MIC Light.
Setting [5] is: light or radiation study, after irradiation, read-out: MIC (µM) after irradiation.
Setting [6] is: light or radiation study, before irradiation, read-out: MIC (µM) before irradiation.
[7] abbreviates: after irradiation, read-out: DHFR inhibition IC50 (nM) after irradiation.
The mark [8] stands for this setting: before irradiation, read-out: DHFR inhibition IC50 (nM) before irradiation.
The mark [9] stands for this setting: IC50 Dark, dark-adapted (thermally adapted, trans isomer).
Setting [10] is: irradiated to PSS with λ1 (340 nm for 3, 365 nm for 6-15), read-out: IC50 Light.

For `COC(C)(C#Cc1cnc(N)nc1N)c1cccc(/N=N/c2ccccc2)c1` (stereo not drawn) [Compound 7, (E)-5-{3-Methoxy-3-[3-(phenyldiazenyl)phenyl]but-1-yn-1-yl}pyrimidine-2,4-diamine], the melting point fell in the range of 105 to 107 °C. In series [1], the “thermal lifetime t1/2” value is above 24 h and the “t1/2 DMSO (25 °C)” value is on record as above 24 h. In the series with E. coli CS1562 (setting [4]), the MIC turned out to be 20 µM. Also, the minimum inhibitory concentration (MIC) in the series on E. coli CS1562 (setting [5]) stood at 20 µM. The minimum inhibitory concentration (MIC) in the series on E. coli CS1562 (setting [6]) came out at 20 µM. For the same compound, the minimal inhibitory concentration (MIC) in the series on E. coli CS1562 (dark, read-out: MIC Dark) was found to be 20 µM. Further, in the series with E. coli CS1562 (both before and after irradiation with λ1 = 365 nm, E. coli CS1562), the “MIC / bacterial growth inhibition, same in both forms” value was found to be 20 µM. Further, in series [2], the “fatigue / resistance to reduction upon repeated irradiation cycles” value is reported as “robust photoswitching”. Besides, on eDHFR (setting [7]), the half-maximal inhibitory concentration (IC50) turned out to be 250 ± 140 nM. Besides, the half-maximal inhibitory concentration (IC50) on eDHFR (setting [8]) came to 190 ± 40 nM. At eDHFR, the “light-induced change in eDHFR inhibition (dark IC50 vs irradiated IC50)” value (“light-induced change in eDHFR inhibition” below) is given as “not significant”. In series [3], this compound displayed a solubility of at most 5 µM.

Compound `Nc1ncc(-c2cccc(/N=N/c3ccccc3)c2)c(N)n1` [Compound 3, (E)-5-[3-(Phenyldiazenyl)phenyl]pyrimidine-2,4-diamine] returned a melting point of 209 to 211 °C. Besides, in series [1], the “t1/2 DMSO (25 °C)” value is recorded as above 24 h. Moreover, in series [2], the “fatigue / resistance to reduction upon repeated irradiation cycles” value is listed as “no sign of fatigue”. The compound also yielded an IC50 at eDHFR (setting [9]) of 280 nM. For the same compound, the IC50 on eDHFR (setting [10]) was found to be 710 nM.

`COC(C)(C#Cc1cnc(N)nc1N)c1ccc(/N=N/c2ccc(C)c(C(=O)O)c2)cc1` (stereo not drawn) [Compound 12, (E)-5-{[4-(4-(2,4-Diaminopyrimidin-5-yl)-2-methoxybut-3-yn-2-yl)phenyl]diazenyl}-2-methylbenzoic acid]: the melting point is 221 °C (dec.). In series [1], the “t1/2 DMSO (25 °C)” value is above 24 h. Besides, the minimal inhibitory concentration (MIC) with E. coli CS1562 (setting [4]) was found to be 20 µM. For the same compound, in the series with E. coli CS1562 (setting [5]), the MIC was determined as 20 µM. Further, in the series on E. coli CS1562 (setting [6]), the MIC was determined as 20 µM. Besides, the MIC in the series on E. coli CS1562 (dark, read-out: MIC Dark) was determined as 20 µM. The concentration for half-maximal inhibition (IC50) on eDHFR (setting [7]) was 71 ± 18 nM. Besides, on eDHFR (setting [8]), the IC50 is 13 ± 2.8 nM. Moreover, the “light-induced change in eDHFR inhibition” value on eDHFR stood at 5 fold.

For the compound `COC(C)(C#Cc1cnc(N)nc1N)c1ccc(/N=N/c2ccc(C(=O)O)c(C)c2)cc1` (stereo not drawn) [Compound 14, (E)-4-{[4-(4-(2,4-Diaminopyrimidin-5-yl)-2-methoxybut-3-yn-2-yl)phenyl]diazenyl}-2-methylbenzoic acid], the melting point is 240 °C (dec.). Moreover, the “t1/2 DMSO (25 °C)” value in series [1] was above 24 h. Also, the MIC in the series on E. coli CS1562 (setting [4]) worked out at 40 µM. Moreover, the MIC in the series with E. coli CS1562 (setting [5]) is 40 µM. Moreover, the MIC in the series on E. coli CS1562 (setting [6]) was determined as 20 µM. In the series on E. coli CS1562 (dark, read-out: MIC Dark), the MIC was 20 µM. Besides, the IC50 at eDHFR (setting [7]) turned out to be 37 ± 14 nM. Further, at eDHFR (setting [8]), the half-inhibitory concentration (IC50) is 77 ± 26 nM. Moreover, the “light-induced change in eDHFR inhibition” value on eDHFR stood at 2 fold.

Turning to `COC(C)(C#Cc1cnc(N)nc1N)c1ccc(/N=N/c2ccccc2)cc1` (stereo not drawn) [Compound 6, (E)-5-{3-Methoxy-3-[4-(phenyldiazenyl)phenyl]but-1-yn-1-yl}pyrimidine-2,4-diamine], the melting point is 149 to 150 °C. In addition, in series [1], the “thermal lifetime t1/2” value is reported as above 24 h and the “t1/2 DMSO (25 °C)” value is above 24 h. The MIC in the series on E. coli CS1562 (setting [4]) was 20 µM. In the series with E. coli CS1562 (setting [5]), the MIC was determined as 20 µM. Also, the minimal inhibitory concentration (MIC) with E. coli CS1562 (setting [6]) was above 40 µM. Moreover, in the series with E. coli CS1562 (dark, read-out: MIC Dark), the MIC is above 40 µM. Besides, the “light-induced difference in antibacterial activity (dark MIC vs irradiated MIC)” value with E. coli CS1562 (irradiation with λ1 = 365 nm, E. coli CS1562) is recorded as above 2 fold. Besides, the “fatigue / resistance to reduction upon repeated irradiation cycles” value in series [2] is reported as “robust photoswitching”. In addition, the IC50 at eDHFR (setting [9]) is 370 nM. In addition, on eDHFR (setting [7]), the half-inhibitory concentration (IC50) was 160 ± 62 nM. On eDHFR (setting [10]), the half-maximal inhibitory concentration (IC50) is 160 ± 62 nM. Moreover, at eDHFR (irradiated with λ1 (1: continuous irradiation at 390 nm), read-out: IC50 Light), the IC50 was determined as 160 nM. Moreover, the “light-induced change in eDHFR inhibition” value on eDHFR is listed as 2 fold. In series [3], this compound displayed a solubility of at most 5 µM.

(Values after publication PMC8958501, “Hypothesis-Driven, Structure-Based Design in Photopharmacology: The Case of eDHFR Inhibitors” (Journal of Medicinal Chemistry, 2022).)
